Results as given in patent publication US20230265151A1, “GIP/GLP1 CO-AGONIST COMPOUNDS” (priority 2020, published 2023).
Where two headings read alike, the source gives them in different places.

Legend:
Type in all cases: cell-based
hGLP-1R = hGLP-1R (Homo sapiens, UniProt P43220); assay: Functional cAMP formation (HTRF) in HEK-293 clonal cells expressing hGLP-1R, 0.1% bovine casein, without or with 1.0% human serum albumin; parameters: expressed in transfected cells; conditions: for EC50: hGLP-1R EC50, nM (SEM, n), cAMP, 37° C., 0.1% bovine casein (no human serum albumin), geometric mean; for Emax: percent of maximal response to GLP-1(7-36)NH2
Outline: (§1)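 Readings of the HTRF 665/620 nm ratio, which falls as cAMP rises, were converted to nM cAMP using a standard curve after 30 min peptide exposure at 37° C.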

hGCGR = molecular target: T1, hGCGR (Homo sapiens, UniProt P47871); assay: Functional cAMP formation (HTRF) in HEK-293 clonal cells expressing hGCGR, 0.1% bovine casein, without or with 1.0% human serum albumin; conditions: hGCGR EC50, nM (SEM, n), 37° C., geometric mean
T1 construct: expressed in transfected cells
Outline: as §1

hGIPR = molecular target: T2, hGIPR (Homo sapiens, UniProt P48546); assay: Functional cAMP formation (HTRF) in HEK-293 clonal cells expressing hGIPR, 0.1% bovine casein, without or with 1.0% human serum albumin; conditions: for Emax: percent of maximal response to GIP(1-42)NH2; for EC50: hGIPR EC50, nM (SEM, n), 37° C., geometric mean
T2 construct: expressed in transfected cells
T2 sequence (P48546 22-466): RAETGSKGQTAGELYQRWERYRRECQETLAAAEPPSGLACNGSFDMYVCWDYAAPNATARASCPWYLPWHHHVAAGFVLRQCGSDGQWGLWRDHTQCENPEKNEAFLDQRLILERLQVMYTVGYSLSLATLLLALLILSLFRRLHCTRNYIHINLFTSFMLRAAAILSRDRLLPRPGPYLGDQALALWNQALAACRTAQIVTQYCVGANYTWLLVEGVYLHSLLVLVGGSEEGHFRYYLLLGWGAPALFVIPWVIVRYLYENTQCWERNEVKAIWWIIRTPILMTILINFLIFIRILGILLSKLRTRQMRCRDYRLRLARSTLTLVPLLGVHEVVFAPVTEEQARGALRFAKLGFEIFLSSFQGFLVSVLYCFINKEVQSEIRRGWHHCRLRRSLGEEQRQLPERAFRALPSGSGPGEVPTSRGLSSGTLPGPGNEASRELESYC
Outline: as §1

[1] = 0.1% bovine casein and 1.0% human serum albumin
[2] = cAMP, 0.1% bovine casein (no human serum albumin)
[3] = HEK293, read-out: hGIPR Emax, % ± SEM, 0.1% bovine casein and 1.0% human serum albumin, 37° C.
[4] = HEK293, read-out: hGLP-1R Emax, % ± SEM, cAMP, 37° C., 0.1% bovine casein, arithmetic mean
[5] = HEK293, read-out: hGIPR Emax, % ± SEM, cAMP, 37° C., 0.1% bovine casein, arithmetic mean
[6] = HEK293, read-out: hGLP-1R Emax, % ± SEM, 0.1% bovine casein and 1.0% human serum albumin, 37° C.

Sequence of hGLP-1R (P43220 24-463): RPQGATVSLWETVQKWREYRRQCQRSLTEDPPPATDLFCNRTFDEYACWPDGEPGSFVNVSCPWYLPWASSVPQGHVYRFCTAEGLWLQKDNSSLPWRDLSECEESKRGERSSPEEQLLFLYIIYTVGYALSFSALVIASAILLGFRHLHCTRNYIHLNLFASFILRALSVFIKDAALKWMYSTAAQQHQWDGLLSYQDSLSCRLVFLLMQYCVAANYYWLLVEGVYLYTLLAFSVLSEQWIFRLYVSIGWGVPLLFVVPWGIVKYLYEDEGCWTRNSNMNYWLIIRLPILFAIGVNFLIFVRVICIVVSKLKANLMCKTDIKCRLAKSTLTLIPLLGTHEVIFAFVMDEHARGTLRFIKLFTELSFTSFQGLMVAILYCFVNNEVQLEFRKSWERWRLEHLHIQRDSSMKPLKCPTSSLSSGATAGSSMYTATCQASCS
T1 sequence (P47871 26-477): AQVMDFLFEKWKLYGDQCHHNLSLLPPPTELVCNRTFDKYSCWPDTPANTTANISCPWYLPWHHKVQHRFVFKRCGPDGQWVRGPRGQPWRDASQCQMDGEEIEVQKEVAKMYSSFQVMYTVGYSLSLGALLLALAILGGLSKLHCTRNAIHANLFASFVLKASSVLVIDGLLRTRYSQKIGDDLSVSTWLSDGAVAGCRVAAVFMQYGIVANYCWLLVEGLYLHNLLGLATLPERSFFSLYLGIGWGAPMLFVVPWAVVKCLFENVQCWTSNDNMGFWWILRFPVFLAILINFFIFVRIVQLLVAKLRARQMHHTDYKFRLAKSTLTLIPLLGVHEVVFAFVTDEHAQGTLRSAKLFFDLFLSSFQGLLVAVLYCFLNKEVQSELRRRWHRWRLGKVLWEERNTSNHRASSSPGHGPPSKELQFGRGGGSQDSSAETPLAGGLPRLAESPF

SMILES	EC50 (hGLP-1R) [nM]	EC50 (hGCGR; [1]) [nM]	EC50 (hGCGR; [2]) [nM]	Emax (hGIPR; [3]) [%]	EC50 (hGIPR; [1]) [nM]	EC50 (hGIPR; [2]) [nM]	Emax (hGLP-1R; [4]) [%]	Emax (hGIPR; [5]) [%]	Emax (hGLP-1R; [6]) [%]
CC[C@H](C)[C@H](NC(=O)[C@H](CCCN)NC(=O)[C@H](CC(=O)O)NC(=O)[C@H](CC(C)C)NC(=O)[C@](C)(CC(C)C)NC(=O)[C@@H](NC(=O)[C@](C)(CO)NC(=O)[C@@H](NC(=O)[C@H](CC(=O)O)NC(=O)[C@H](CO)NC(=O)[C@@H](NC(=O)[C@](C)(Cc1ccccc1F)NC(=O)[C@@H](NC(=O)CNC(=O)[C@H](CCC(=O)O)NC(=O)C(C)(C)NC(=O)[C@@H](N)Cc1ccc(O)cc1)[C@@H](C)O)[C@@H](C)O)C(C)C)[C@@H](C)CC)C(=O)N[C@@H](C)C(=O)N[C@@H](CCC(N)=O)C(=O)NC(C)(C)C(=O)N[C@@H](CCC(=O)O)C(=O)N[C@@H](Cc1ccccc1)C(=O)N[C@H](C(=O)N[C@@H](CCCCNC(=O)COCCOCCNC(=O)COCCOCCNC(=O)CC[C@H](NC(=O)CCCCCCCCCOc1ccc(C(=O)O)cc1)C(=O)O)C(=O)N[C@@](C)(Cc1ccc(O)cc1)C(=O)N[C@@H](CC(C)C)C(=O)N[C@H](C(=O)N[C@@H](CCCCNC(=O)COCCOCCNC(=O)COCCOCCNC(=O)CC[C@H](NC(=O)CCCCCCCCCOc1ccc(C(=O)O)cc1)C(=O)O)C(=O)NCC(=O)NCC(=O)N1CCC[C@H]1C(=O)N[C@@H](CO)C(=O)N[C@@H](CO)C(=O)NCC(=O)N[C@@H](C)C(=O)N1CCC[C@H]1C(=O)N1CCC[C@H]1C(=O)N1CCC[C@H]1C(=O)N[C@@H](CO)C(N)=O)[C@@H](C)CC)[C@@H](C)CC [Example 309]	0.527	> 9950	> 9950	95.3	6.08	0.0212	–	–	–
CC[C@H](C)[C@H](NC(=O)[C@H](CCCN)NC(=O)[C@H](CC(=O)O)NC(=O)[C@H](CC(C)C)NC(=O)[C@](C)(CC(C)C)NC(=O)[C@@H](NC(=O)[C@H](CO)NC(=O)[C@H](CCc1ccc(O)cc1)NC(=O)[C@H](CC(=O)O)NC(=O)[C@H](CO)NC(=O)[C@@H](NC(=O)[C@](C)(Cc1ccccc1F)NC(=O)[C@@H](NC(=O)CNC(=O)[C@H](CCC(=O)O)NC(=O)C(C)(C)NC(=O)[C@@H](N)Cc1ccc(O)cc1)[C@@H](C)O)[C@@H](C)O)[C@@H](C)CC)C(=O)N[C@@H](C)C(=O)N[C@@H](CCC(N)=O)C(=O)NC(C)(C)C(=O)N[C@@H](CCC(=O)O)C(=O)N[C@@H](Cc1ccccc1)C(=O)N[C@H](C(=O)N[C@@H](CCCCNC(=O)COCCOCCNC(=O)COCCOCCNC(=O)CC[C@H](NC(=O)CCCCCCCCCOc1ccc(C(=O)O)cc1)C(=O)O)C(=O)N[C@@](C)(Cc1ccc(O)cc1)C(=O)N[C@@H](CC(C)C)C(=O)N[C@H](C(=O)N[C@@H](CCCCNC(=O)COCCOCCNC(=O)COCCOCCNC(=O)CC[C@H](NC(=O)CCCCCCCCCOc1ccc(C(=O)O)cc1)C(=O)O)C(=O)NCC(=O)NCC(=O)N1CCC[C@H]1C(=O)N[C@@H](CO)C(=O)N[C@@H](CO)C(=O)NCC(=O)N[C@@H](C)C(=O)N1CCC[C@H]1C(=O)N1CCC[C@H]1C(=O)N1CCC[C@H]1C(=O)N[C@@H](CO)C(N)=O)[C@@H](C)CC)[C@@H](C)CC [Example 310]	0.347	> 9950	> 9950	83.9	–	0.025	105	–	–
CC[C@H](C)[C@H](NC(=O)[C@H](CCCN)NC(=O)[C@H](CC(=O)O)NC(=O)[C@H](CC(C)C)NC(=O)[C@](C)(CC(C)C)NC(=O)[C@@H](NC(=O)C(C)(C)NC(=O)[C@H](Cc1ccncc1)NC(=O)[C@H](CC(=O)O)NC(=O)[C@H](CO)NC(=O)[C@@H](NC(=O)[C@](C)(Cc1ccccc1F)NC(=O)[C@@H](NC(=O)CNC(=O)[C@H](CCC(=O)O)NC(=O)C(C)(C)NC(=O)[C@@H](N)Cc1ccc(O)cc1)[C@@H](C)O)[C@@H](C)O)[C@@H](C)CC)C(=O)N[C@@H](C)C(=O)N[C@@H](CCC(N)=O)C(=O)NC(C)(C)C(=O)N[C@@H](CCC(=O)O)C(=O)N[C@@H](Cc1ccccc1)C(=O)N[C@H](C(=O)N[C@@H](CCCCNC(=O)COCCOCCNC(=O)COCCOCCNC(=O)CC[C@H](NC(=O)CCCCCCCCCCOc1ccc(C(=O)O)cc1)C(=O)O)C(=O)N[C@@](C)(Cc1ccc(O)cc1)C(=O)N[C@@H](CC(C)C)C(=O)N[C@H](C(=O)N[C@@H](CCCCNC(=O)COCCOCCNC(=O)COCCOCCNC(=O)CC[C@H](NC(=O)CCCCCCCCCCOc1ccc(C(=O)O)cc1)C(=O)O)C(=O)NCC(=O)NCC(=O)N1CCC[C@H]1C(=O)N[C@@H](CO)C(=O)N[C@@H](CO)C(=O)NCC(=O)N[C@@H](C)C(=O)N1CCC[C@H]1C(=O)N1CCC[C@H]1C(=O)N1CCC[C@H]1C(=O)N[C@@H](CO)C(N)=O)[C@@H](C)CC)[C@@H](C)CC [Example 311]	0.791	> 9950	> 9950	98.3	2.16	0.0243	110	105	–
CC[C@H](C)[C@H](NC(=O)[C@H](CCCN)NC(=O)[C@H](CC(=O)O)NC(=O)[C@H](CC(C)C)NC(=O)[C@](C)(CC(C)C)NC(=O)[C@@H](NC(=O)C(C)(C)NC(=O)[C@H](Cc1ccc(O)cc1)NC(=O)[C@H](CC(=O)O)NC(=O)[C@H](CO)NC(=O)[C@@H](NC(=O)[C@](C)(Cc1ccccc1F)NC(=O)[C@@H](NC(=O)CNC(=O)[C@H](CCC(=O)O)NC(=O)C(C)(C)NC(=O)[C@@H](N)Cc1ccc(O)cc1)[C@@H](C)O)[C@@H](C)O)[C@@H](C)CC)C(=O)N[C@@H](C)C(=O)N[C@@H](CCC(N)=O)C(=O)NC(C)(C)C(=O)N[C@@H](CCC(=O)O)C(=O)N[C@@H](Cc1ccccc1)C(=O)N[C@H](C(=O)N[C@@H](CCCCNC(=O)COCCOCCNC(=O)COCCOCCNC(=O)CC[C@H](NC(=O)CCCCCCCCCCOc1ccc(C(=O)O)cc1)C(=O)O)C(=O)N[C@@](C)(Cc1ccc(O)cc1)C(=O)N[C@@H](CC(C)C)C(=O)N[C@H](C(=O)N[C@@H](CCCCNC(=O)COCCOCCNC(=O)COCCOCCNC(=O)CC[C@H](NC(=O)CCCCCCCCCCOc1ccc(C(=O)O)cc1)C(=O)O)C(=O)NCC(=O)NCC(=O)N1CCC[C@H]1C(=O)N[C@@H](CO)C(=O)N[C@@H](CO)C(=O)NCC(=O)N[C@@H](C)C(=O)N1CCC[C@H]1C(=O)N1CCC[C@H]1C(=O)N1CCC[C@H]1C(=O)N[C@@H](CO)C(N)=O)[C@@H](C)CC)[C@@H](C)CC [Example 312]	0.663	> 9950	> 9950	89.5	–	0.00757	–	105	112
CC[C@H](C)[C@H](NC(=O)[C@H](CCCN)NC(=O)[C@H](CC(=O)O)NC(=O)[C@H](CC(C)C)NC(=O)[C@](C)(CC(C)C)NC(=O)[C@@H](NC(=O)C(C)(C)NC(=O)[C@@H](NC(=O)[C@H](CC(=O)O)NC(=O)[C@H](CO)NC(=O)[C@@H](NC(=O)[C@](C)(Cc1ccccc1F)NC(=O)[C@@H](NC(=O)CNC(=O)[C@H](CCC(=O)O)NC(=O)C(C)(C)NC(=O)[C@@H](N)Cc1ccc(O)cc1)[C@@H](C)O)[C@@H](C)O)C(C)C)[C@@H](C)CC)C(=O)N[C@@H](C)C(=O)N[C@@H](CCC(N)=O)C(=O)NC(C)(C)C(=O)N[C@@H](CCC(=O)O)C(=O)N[C@@H](Cc1ccccc1)C(=O)N[C@H](C(=O)N[C@@H](CCCCNC(=O)COCCOCCNC(=O)COCCOCCNC(=O)CC[C@H](NC(=O)CCCCCCCCCCOc1ccc(C(=O)O)cc1)C(=O)O)C(=O)N[C@@](C)(Cc1ccc(O)cc1)C(=O)N[C@@H](CC(C)C)C(=O)N[C@H](C(=O)N[C@@H](CCCCNC(=O)COCCOCCNC(=O)COCCOCCNC(=O)CC[C@H](NC(=O)CCCCCCCCCCOc1ccc(C(=O)O)cc1)C(=O)O)C(=O)NCC(=O)NCC(=O)N1CCC[C@H]1C(=O)N[C@@H](CO)C(=O)N[C@@H](CO)C(=O)NCC(=O)N[C@@H](C)C(=O)N1CCC[C@H]1C(=O)N1CCC[C@H]1C(=O)N1CCC[C@H]1C(=O)N[C@@H](CO)C(N)=O)[C@@H](C)CC)[C@@H](C)CC [Example 313]	1.13	> 9950	> 9950	–	–	0.00781	–	–	95
